US20260306642A1, “STAT DEGRADERS AND USES THEREOF” (Recludix Pharma, Inc., priority 2023, published 2026)
Read-outs that look alike come from different tables or passages of the source.

Legend:
[1] = biological target: T1, STAT3 (Homo sapiens, UniProt P40763); assay: STAT3 Fluorescence Polarization (FP) Assay; type: binding
T1 construct: Recombinant STAT3 protein (STAT3(G127-I722))
Procedure: An FP assay was developed to determine IC50 values for test substances.
Recombinant STAT3 protein (STAT3(G127-I722)) at 25 nM was combined with a fluorescently labeled, phosphotyrosine peptide probe (5-FAM-GpYLPQTV-NH2) at 2 nM in FP buffer (10 mM HEPES pH 7.4, 50 mM NaCl, 1 mM EDTA, 0.05% Tween 20, 2 mM DTT). 50 μL of STAT3-probe mixture was added to serial diluted compounds in black, 96-well plates (Greiner BioOne 655076) to a final concentration of 1% DMSO. Reaction components were mixed, and FP was measured after 45-minute incubation at room temperature using a Tecan Spark multimode plate reader. FP signal (mP) was plotted against the log concentration of the test substances and IC50 values were calculated by nonlinear regression analysis using GraphPad Prism software. For STAT3 FP assay, A=≤100 nM; B=>100-1000 nM; C=>1-10 μM; and D=>10 μM.

[2] = biological target: T2, STAT6 (Homo sapiens, UniProt P42226); assay: STAT6 Fluorescence Polarization (FP) Assay; type: binding
T2 construct: Recombinant STAT6 protein (STAT6(W123-T658))
T2 sequence (P42226 123-658): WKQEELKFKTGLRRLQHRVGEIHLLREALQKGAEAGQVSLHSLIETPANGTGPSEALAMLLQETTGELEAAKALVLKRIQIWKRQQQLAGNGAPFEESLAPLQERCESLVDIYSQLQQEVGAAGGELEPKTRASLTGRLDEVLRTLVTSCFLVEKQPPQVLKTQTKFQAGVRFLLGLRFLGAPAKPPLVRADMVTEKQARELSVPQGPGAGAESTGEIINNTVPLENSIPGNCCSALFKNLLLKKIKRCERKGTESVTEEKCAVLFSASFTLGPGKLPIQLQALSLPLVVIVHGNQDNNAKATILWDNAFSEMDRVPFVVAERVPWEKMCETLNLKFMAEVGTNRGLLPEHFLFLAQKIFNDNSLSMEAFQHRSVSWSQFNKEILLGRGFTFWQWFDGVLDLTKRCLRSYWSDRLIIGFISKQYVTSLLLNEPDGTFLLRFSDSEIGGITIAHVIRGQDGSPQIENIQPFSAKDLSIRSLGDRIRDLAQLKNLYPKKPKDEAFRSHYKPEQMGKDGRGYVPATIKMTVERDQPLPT
Procedure: An FP assay was developed to determine IC50 values for test substances. Recombinant STAT6 protein (STAT6(W123-T658)) at 250 nM was combined with a fluorescently labeled, phosphotyrosine peptide probe (5-FAM-ApYKPFQDLI-NH2) at 2 nM in FP buffer (10 mM HEPES pH 7.4, 50 mM NaCl, 1 mM EDTA, 0.05% Tween 20, 2 mM DTT). 50 μL of STAT6-probe mixture was added to serial diluted compounds in black, 96-well plates (Greiner BioOne 655076) to a final concentration of 1% DMSO. Reaction components were mixed, and FP was measured after 45-minute incubation at room temperature using a Tecan Spark multimode plate reader. FP signal (mP) was plotted against the log concentration of the test substances and IC50 values were calculated by nonlinear regression analysis using GraphPad Prism software. For STAT6 FP assay, A=≤300 nM; B=>300-3000 nM; C=>3-30 μM; and D=>30 μM.

[3] = biological target: T3, pSTAT6 (Homo sapiens, UniProt P42226); assay: MSD-pSTAT-PBMC Assay (pSTAT6, IL-4 stimulated); type: cell-based
T3 sequence (P42226 1-847): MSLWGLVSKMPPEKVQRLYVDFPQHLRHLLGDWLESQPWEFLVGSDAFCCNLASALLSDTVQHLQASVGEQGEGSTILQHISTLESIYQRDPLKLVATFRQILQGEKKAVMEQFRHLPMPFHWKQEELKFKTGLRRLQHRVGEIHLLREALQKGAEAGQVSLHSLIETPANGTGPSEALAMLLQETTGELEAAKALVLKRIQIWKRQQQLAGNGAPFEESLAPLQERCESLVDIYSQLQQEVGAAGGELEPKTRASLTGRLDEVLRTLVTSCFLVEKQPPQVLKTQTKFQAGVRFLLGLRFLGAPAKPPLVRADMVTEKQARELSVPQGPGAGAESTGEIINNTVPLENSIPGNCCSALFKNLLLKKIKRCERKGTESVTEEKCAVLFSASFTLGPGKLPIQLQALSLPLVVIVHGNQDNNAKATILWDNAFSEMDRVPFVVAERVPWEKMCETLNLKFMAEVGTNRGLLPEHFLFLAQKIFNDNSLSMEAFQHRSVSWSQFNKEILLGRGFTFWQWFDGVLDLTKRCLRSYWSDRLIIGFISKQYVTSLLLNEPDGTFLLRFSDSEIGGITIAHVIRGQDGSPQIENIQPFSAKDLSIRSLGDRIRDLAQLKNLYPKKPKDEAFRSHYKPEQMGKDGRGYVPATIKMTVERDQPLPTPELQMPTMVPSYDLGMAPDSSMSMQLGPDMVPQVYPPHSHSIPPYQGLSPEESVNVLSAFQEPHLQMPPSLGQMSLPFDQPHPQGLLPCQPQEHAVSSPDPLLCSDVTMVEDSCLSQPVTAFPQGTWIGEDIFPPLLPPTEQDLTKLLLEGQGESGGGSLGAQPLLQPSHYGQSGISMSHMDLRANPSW
Excerpt: Cryopreserved Peripheral Blood Mononuclear Cells (PBMC) are from AllCells. Recombinant Human IL-4 and IL-6 are from Peprotech. Mouse monoclonal anti-STAT3 antibody, rabbit monoclonal anti-pY705-STAT3 antibody, rabbit monoclonal Anti-pY641-STAT6 antibody, and lysis buffer are from Cell Signaling Technology (CST). Mouse monoclonal anti-STAT6 antibody is from BioLegend. Assay plates, blocker, and anti-rabbit secondary antibody are from Meso Scale Discovery (MSD).
Cryopreserved PBMCs were thawed out and allowed to recover overnight in IMDM+10% heat-inactivated FBS prior to plating 50,000 (STAT3) or 25,000 (STAT6) cells per well in 96-well U-bottom tissue culture plates. Cells were treated with compound for 3 hrs, then stimulated with 10 ng/mL IL-6 (STAT3) or 1 ng/mL IL-4 (STAT6) for 10 min. Cells were then spun down and washed with ice-cold PBS prior to lysing the cell pellet with 1× lysis buffer (CST) with 1× HALT protease and phosphatase inhibitor cocktail (Thermo). Lysates were transferred to and incubated overnight at 4° C. with shaking in QuickPlex 96-well high bind assay plates (MSD) pre-coated overnight with 30 μL per well of […] mouse monoclonal anti-STAT3 antibody (STAT3) or 2 μg/mL mouse monoclonal anti-STAT6 antibody (STAT6) in 1× PBS, and pre-blocked for 1 hour with 3% Blocker-A (MSD). Captured protein in the assay plates were then washed and probed with 25 μL per well of […] rabbit monoclonal anti-pY705-STAT3 antibody (STAT3) or […] rabbit monoclonal Anti-pY641-STAT6 antibody (STAT6) in 1% Blocker-A for 1 hour at room temperature with shaking, then washed and probed with 25 ul per well of 1 ug/ml Sulfo-TAG Labeled Goat Anti-Rabbit Antibody (MSD) in 1% Blocker-A for 1 hour at room temperature with shaking. Assay plates were then washed and 150 μL of 1× Read Buffer-T (MSD) was added to each well prior to reading on an SQ120 MSD Plate Reader. Assay signal from each sample was subtracted by the signal from unstimulated control wells and normalized to DMSO control wells. IC50 values were calculated using Graph Pad Prism Dose-Response Nonlinear Regression with variable slope. For both pSTAT3 and pSTAT6 A=≤100 nM; B=>100-1000 nM; C=>1000-3000 nM; and D=>3 μM.

[4] = compound 3 hrs, then 1 ng/mL IL-4 10 min, pY641-STAT6, read-out: pSTAT6 IC50
[5] = read-out: pSTAT6 IC50, compound 3 hrs, then 1 ng/mL IL-4 10 min, pY641-STAT6

T1 sequence (P40763 127-722): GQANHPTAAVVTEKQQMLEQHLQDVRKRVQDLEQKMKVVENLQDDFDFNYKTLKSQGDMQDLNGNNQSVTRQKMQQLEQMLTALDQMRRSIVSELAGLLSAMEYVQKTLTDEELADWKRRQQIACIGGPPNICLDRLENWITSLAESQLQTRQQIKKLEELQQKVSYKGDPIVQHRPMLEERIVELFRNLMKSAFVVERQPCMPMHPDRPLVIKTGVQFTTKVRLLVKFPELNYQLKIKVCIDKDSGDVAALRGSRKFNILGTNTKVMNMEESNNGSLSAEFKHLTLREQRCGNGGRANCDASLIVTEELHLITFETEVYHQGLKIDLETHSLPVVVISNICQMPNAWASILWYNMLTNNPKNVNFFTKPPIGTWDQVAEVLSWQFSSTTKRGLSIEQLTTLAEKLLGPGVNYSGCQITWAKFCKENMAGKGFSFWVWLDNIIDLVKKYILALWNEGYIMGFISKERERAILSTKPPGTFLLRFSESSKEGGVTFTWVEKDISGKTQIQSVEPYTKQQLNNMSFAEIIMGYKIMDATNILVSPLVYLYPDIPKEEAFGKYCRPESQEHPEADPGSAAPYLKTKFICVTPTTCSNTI

IC50 [1] [nM]	IC50 [2] [nM]	IC50 [3, 4] [nM]	SMILES	IC50 [3, 5] [nM]
1000 to 10000	300 to 3000	100 to 1000	O=C1CCC(N2Cc3c(C#CCCCCCCn4ccc([C@@H]5CN(C(=O)[C@@H]6CC[C@@H]7CCCC[C@H](NC(=O)c8cc9cc(C(F)(F)P(=O)(O)O)ccc9s8)C(=O)N76)C6(CC6)C5)cc4=O)cccc3C2=O)C(=O)N1 (stereo partly drawn) [Compound 5, ((2-(((3S,6S,10aS)-3-((6R)-6-(1-(8-(2-(2,6-dioxopiperidin-3-yl)-1-oxoisoindolin-4-yl)oct-7-yn-1-yl)-2-oxo-1,2-dihydropyridin-4-yl)-4-azaspiro[2.4]heptane-4-carbonyl)-5 oxodecahydropyrrolo[1,2-a]azocin-6-yl)carbamoyl)benzo[b]thiophen-5-yl)difluoromethyl)phosphonic acid]	–
100 to 1000	< 300	> 3000	N#CC1CN(C(=O)C2CCC3CCCCC(NC(=O)c4cc5cc(C(F)(F)P(=O)(O)O)ccc5s4)C(=O)N32)CC1c1cccc(OCCCCCC#Cc2cccc3c2CN(C2CCC(=O)NC2=O)C3=O)c1 [Compound 13, ((2-(((3S,6S,10aS)-3-((rel-3S,4R)-3-cyano-4-(3-((7-(2-(2,6-dioxopiperidin-3-yl)-1-oxoisoindolin-4-yl)hept-6-yn-1-yl)oxy)phenyl)pyrrolidine-1-carbonyl)-5-oxodecahydropyrrolo[1,2-a]azocin-6-yl)carbamoyl)benzo[b]thiophen-5-yl)difluoromethyl)phosphonic acid]	–

Second part, the compound before the results:

SMILES	IC50 [1] [nM]	IC50 [2] [nM]	IC50 [3, 4] [nM]	IC50 [3, 5] [nM]
N#C[C@@H]1CN(C(=O)[C@@H]2CC[C@@H]3CCCC[C@H](NC(=O)c4cc5cc(C(F)(F)P(=O)(O)O)ccc5s4)C(=O)N32)C[C@H]1c1cccc(OCCCCOc2ccc(C3CCC(=O)NC3=O)cc2)c1 (mixture of isomers) [Compound 3, trans-((2-(((3S,6S,10aS)-3-(3-cyano-4-(3-(4-(4-(2,6-dioxopiperidin-3-yl)phenoxy)butoxy)phenyl)pyrrolidine-1-carbonyl)-5-oxodecahydropyrrolo[1,2-a]azocin-6-yl)carbamoyl)benzo[b]thiophen-5-yl)difluoromethyl)phosphonic acid]	100 to 1000	< 300	1000 to 3000	–
CCCC(=O)SCCOP(=O)(OCCSC(=O)CCC)C(F)(F)c1ccc2sc(C(=O)NC3CCCCC4CCC(C(=O)N5CC(C#N)C(c6cccc(N7CCN(c8ccc9c(c8)[nH]c(=O)n9C8CCC(=O)NC8=O)CC7)c6)C5)N4C3=O)cc2c1 [Compound 23, S,S(((((2-(((3S,6S,10aS)-3-((rel-3S,4R)-3-cyano-4-(3-(4-(1-(2,6-dioxopiperidin-3-yl)-2-oxo-2,3-dihydro-1H-benzo[d]imidazol-5-yl)piperazin-1-yl)phenyl)pyrrolidine-1-carbonyl)-5-oxodecahydropyrrolo[1,2-a]azocin-6-yl)carbamoyl)benzo[b]thiophen-5-yl)difluoromethyl)phosphoryl)bis(oxy))bis(ethane-2,1-diyl)) dibutanethioate]	–	–	–	< 100
CCCC(=O)SCCOP(=O)(OCCSC(=O)CCC)C(F)(F)c1ccc2sc(C(=O)N[C@H]3CCCC[C@H]4CC[C@@H](C(=O)N5C[C@@H](c6ccn(C7CCN(c8ccc9c(c8)[nH]c(=O)n9C8CCC(=O)NC8=O)CC7)c(=O)c6)CC56CC6)N4C3=O)cc2c1 (stereo partly drawn) [Compound 25, S,S((((2-(((3S,6S,10aS)-3-((6R)-6-(1-(1-(1-(2,6-dioxopiperidin-3-yl)-2-oxo-2,3-dihydro-1H-benzo[d]imidazol-5-yl)piperidin-4-yl)-2-oxo-1,2-dihydropyridin-4-yl)-4-azaspiro[2.4]heptane-4-carbonyl)-5-oxodecahydropyrrolo[1,2-a]azocin-6-yl)carbamoyl)benzo[b]thiophen-5-yl)difluoromethyl)phosphoryl)bis(oxy))bis(ethane-2,1-diyl)) dibutanethioate]	–	–	–	100 to 1000
CCCC(=O)SCCOP(=O)(OCCSC(=O)CCC)C(F)(F)c1ccc2sc(C(=O)N[C@H]3CCCC[C@H]4CC[C@@H](C(=O)N5C[C@@H](c6ccn(CCOCCOCCOc7cccc8c7CN(C7CCC(=O)NC7=O)C8=O)c(=O)c6)CC56CC6)N4C3=O)cc2c1 (stereo partly drawn) [Compound 26, S,S((((2-(((3S,6S,10aS)-3-((6R)-6-(1-(2-(2-(2-((2-(2,6-dioxopiperidin-3-yl)-1-oxoisoindolin-4-yl)oxy)ethoxy)ethoxy)ethyl)-2-oxo-1,2-dihydropyridin-4-yl)-4-azaspiro[2.4]heptane-4-carbonyl)-5-oxodecahydropyrrolo[1,2-a]azocin-6-yl)carbamoyl)benzo[b]thiophen-5-yl)difluoromethyl)phosphoryl)bis(oxy))bis(ethane-2,1-diyl)) dibutanethioate]	–	–	100 to 1000	–
